From patent US12202818B2, “Compounds and methods for CD73 modulation and indications therefor” (Opna Bio SA, priority 2020, dated 2025)

What was measured:
human CD73 = biological target: T1, human CD73 (Homo sapiens, UniProt P21589); assay: Inhibitor activity against CD73 in cell based assay (CD73 expressing CHO-K1 cells); details: CHO-K1 cells expressing human CD73, 150 μM AMP, 4 hours of incubation; read-out: CHO-K1 CELL_VARIANT: CD73 IC50
T1 construct: expressed in transfected cells
T1 sequence (P21589 27-549): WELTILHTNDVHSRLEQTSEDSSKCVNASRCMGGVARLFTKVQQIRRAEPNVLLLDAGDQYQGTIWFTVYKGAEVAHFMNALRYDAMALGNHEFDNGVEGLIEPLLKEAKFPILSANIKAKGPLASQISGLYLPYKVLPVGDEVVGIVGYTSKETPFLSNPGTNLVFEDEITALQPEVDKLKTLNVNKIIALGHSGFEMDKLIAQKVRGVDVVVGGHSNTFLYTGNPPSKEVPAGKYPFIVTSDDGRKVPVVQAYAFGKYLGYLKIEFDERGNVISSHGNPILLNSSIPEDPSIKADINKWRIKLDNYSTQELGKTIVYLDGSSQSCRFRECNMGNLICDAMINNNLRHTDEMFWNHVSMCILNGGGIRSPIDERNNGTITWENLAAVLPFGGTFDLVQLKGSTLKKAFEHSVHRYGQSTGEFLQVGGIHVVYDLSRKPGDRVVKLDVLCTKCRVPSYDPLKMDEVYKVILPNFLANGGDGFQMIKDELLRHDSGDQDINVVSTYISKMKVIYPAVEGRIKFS
Method in brief: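 AMP (150 μM) was added alongside 8 titrated compound doses (maximum 10 μM, 1:3 steps) to CHO-K1 cells stably expressing human CD73. After 4 h, supernatant AMP was measured indirectly with CellTiter-Glo 2.0 plus 1 μM ATP (30 min, RT). % inhibition versus high and low controls was fitted nonlinearly for IC50.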

[1] = biological target: T2, Human CD73 (amino acid residues 27-549) (Homo sapiens, UniProt P21589); assay: CD73 enzymatic assay (luciferase-based indirect assay, CellTiter-Glo); format: biochemical; details: 0.4 nM CD73, 150 μM AMP, 1 hour at room temperature
T2 construct: Human CD73 (amino acid residues 27-549); His tag (N); made in house; host or cells: E. coli
T2 sequence (P21589 27-549): T1 sequence (P21589 27-549)
Method in brief: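 Luciferase-coupled readout: AMP left after CD73 turnover suppresses CellTiter-Glo signal (1 μM ATP final, 30 min RT). Reaction beforehand: 150 μM AMP, 0.4 nM E. coli-made His-tagged CD73 residues 27-549, test compound, HEPES pH 7.4 with Tween-20, 1 h RT. % inhibition fitted nonlinearly for IC50.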

| SMILES | IC50 (human CD73) | IC50 [1] |
| --- | --- | --- |
| Cc1cc(S(C)(=O)=O)ccc1-c1ccnc(O[C@@H]2CCN(c3cn[nH]c(=O)c3Cl)C2)c1 [P-0081, (R)-4-chloro-5-(3-((4-(2-methyl-4-(methylsulfonyl)phenyl)pyridin-2-yl)oxy)pyrrolidin-1-yl)pyridazin-3(2H)-one] | 0.001 to 10 µM | 0.001 to 10 µM |
| O=c1[nH]ncc(N2CC[C@@H](Oc3cc(N4CCC(CO)(CCl)CC4)ccn3)C2)c1Cl [P-0083, (R)-4-chloro-5-(3-((4-(4-(chloromethyl)-4-(hydroxymethyl)piperidin-1-yl)pyridin-2-yl)oxy)pyrrolidin-1-yl)pyridazin-3(2H)-one] | 0.001 to 10 µM | 0.001 to 10 µM |
| O=c1[nH]ncc(N2CC[C@@H](Oc3cc(C4=CCCC4)ccn3)C2)c1Cl [P-0084, (R)-4-chloro-5-(3-((4-(cyclopent-1-en-1-yl)pyridin-2-yl)oxy)pyrrolidin-1-yl)pyridazin-3(2H)-one] | 0.001 to 10 µM | 0.001 to 10 µM |
| O=c1[nH]ncc(N2CC[C@@H](Oc3cc(C4CCCCC4)ccn3)C2)c1Cl [P-0085, (R)-4-chloro-5-(3-((4-cyclohexylpyridin-2-yl)oxy)pyrrolidin-1-yl)pyridazin-3(2H)-one] | 0.001 to 10 µM | 0.001 to 10 µM |
| Cc1nn(CC2COC2)c(C)c1-c1ccnc(O[C@@H]2CCN(c3cn[nH]c(=O)c3Cl)C2)c1 [P-0087, (R)-4-chloro-5-(3-((4-(3,5-dimethyl-1-(oxetan-3-ylmethyl)-1H-pyrazol-4-yl)pyridin-2-yl)oxy)pyrrolidin-1-yl)pyridazin-3(2H)-one] | 0.001 to 10 µM | 0.001 to 10 µM |
| Cc1nn(C(CO)CI)c(C)c1-c1ccnc(O[C@@H]2CCN(c3cn[nH]c(=O)c3Cl)C2)c1 (stereo partly drawn) [P-0088, 4-chloro-5-((3R)-3-((4-(1-(1-hydroxy-3-iodopropan-2-yl)-3,5-dimethyl-1H-pyrazol-4-yl)pyridin-2-yl)oxy)pyrrolidin-1-yl)pyridazin-3(2H)-one] | 0.001 to 10 µM | 0.001 to 10 µM |
| Cc1noc(C)c1-c1ccnc(O[C@@H]2CCN(c3cnn(CCCO)c(=O)c3Cl)C2)c1 [P-0090, (R)-4-chloro-5-(3-((4-(3,5-dimethylisoxazol-4-yl)pyridin-2-yl)oxy)pyrrolidin-1-yl)-2-(3-hydroxypropyl)pyridazin-3(2H)-one] | 0.001 to 10 µM | 0.001 to 10 µM |
| N#CC1CCC(c2ccnc(O[C@@H]3CCN(c4cn[nH]c(=O)c4Cl)C3)c2)CC1 (stereo partly drawn) [P-0091, (R)-4-(2-((1-(5-chloro-6-oxo-1,6-dihydropyridazin-4-yl)pyrrolidin-3-yl)oxy)pyridin-4-yl)cyclohexane-1-carbonitrile] | 0.001 to 10 µM | 0.001 to 10 µM |
| CC1COCCN1c1ccnc(O[C@@H]2CCN(c3cn[nH]c(=O)c3Cl)C2)c1 (stereo partly drawn) [P-0092, 4-chloro-5-((3R)-3-((4-(3-methylmorpholino)pyridin-2-yl)oxy)pyrrolidin-1-yl)pyridazin-3(2H)-one] | 0.001 to 10 µM | 0.001 to 10 µM |
| CC1CCCN1c1ccnc(O[C@@H]2CCN(c3cn[nH]c(=O)c3Cl)C2)c1 (stereo partly drawn) [P-0093, 4-chloro-5-((3R)-3-((4-(2-methylpyrrolidin-1-yl)pyridin-2-yl)oxy)pyrrolidin-1-yl)pyridazin-3(2H)-one] | 0.001 to 10 µM | 0.001 to 10 µM |
| Cc1nn(CC2(C)COC2)c(C)c1-c1ccnc(O[C@H]2CN(c3cn[nH]c(=O)c3Cl)C[C@@H]2F)c1 [P-0096, 4-chloro-5-((3S,4S)-3-((4-(3,5-dimethyl-1-((3-methyloxetan-3-yl)methyl)-1H-pyrazol-4-yl)pyridin-2-yl)oxy)-4-fluoropyrrolidin-1-yl)pyridazin-3(2H)-one] | 0.001 to 10 µM | 0.001 to 10 µM |
| Cc1nn(C)c(C)c1-c1ccnc(O[C@@H]2CCN(c3cnn(CCCO)c(=O)c3C#N)C2)c1 [P-0097, (R)-2-(3-hydroxypropyl)-3-oxo-5-(3-((4-(1,3,5-trimethyl-1H-pyrazol-4-yl)pyridin-2-yl)oxy)pyrrolidin-1-yl)-2,3-dihydropyridazine-4-carbonitrile] | 0.001 to 10 µM | 0.001 to 10 µM |
| CC1(C)CC=C(c2ccnc(O[C@@H]3CCN(c4cn[nH]c(=O)c4Cl)C3)c2)CC1 [P-0099, (R)-4-chloro-5-(3-((4-(4,4-dimethylcyclohex-1-en-1-yl)pyridin-2-yl)oxy)pyrrolidin-1-yl)pyridazin-3(2H)-one] | 0.001 to 10 µM | 0.001 to 10 µM |
| CC(C)c1cc(Nc2cccnc2O[C@@H]2CCN(c3cnn(CCO)c(=O)c3Cl)C2)n(C)n1 [P-0101, (R)-4-chloro-2-(2-hydroxyethyl)-5-(3-((3-((3-isopropyl-1-methyl-1H-pyrazol-5-yl)amino)pyridin-2-yl)oxy)pyrrolidin-1-yl)pyridazin-3(2H)-one] | 10 to 100 µM | 0.001 to 10 µM |
| O=c1c(Cl)c(N2CC[C@@H](Oc3ncccc3NC3CCC(F)(F)CC3)C2)cnn1CCO [P-0102, (R)-4-chloro-5-(3-((3-((4,4-difluorocyclohexyl)amino)pyridin-2-yl)oxy)pyrrolidin-1-yl)-2-(2-hydroxyethyl)pyridazin-3(2H)-one] | 0.001 to 10 µM | 0.001 to 10 µM |

Next, values leading:

| IC50 (human CD73) | IC50 [1] | SMILES |
| --- | --- | --- |
| 0.001 to 10 µM | 0.001 to 10 µM | O=c1[nH]ncc(N2CC[C@@H](Oc3cc(N4CCC5(CC4)COC5)ccn3)C2)c1Cl [P-0082, (R)-5-(3-((4-(2-oxa-7-azaspiro[3.5]nonan-7-yl)pyridin-2-yl)oxy)pyrrolidin-1-yl)-4-chloropyridazin-3(2H)-one] |
| 0.001 to 10 µM | 0.001 to 10 µM | Cc1nn(CC2CCO2)c(C)c1-c1ccnc(O[C@@H]2CCN(c3cn[nH]c(=O)c3Cl)C2)c1 (stereo partly drawn) [P-0086, 4-chloro-5-((3R)-3-((4-(3,5-dimethyl-1-(oxetan-2-ylmethyl)-1H-pyrazol-4-yl)pyridin-2-yl)oxy)pyrrolidin-1-yl)pyridazin-3(2H)-one] |
| 0.001 to 10 µM | 0.001 to 10 µM | Cc1nn(C)c(C)c1-c1cc(O[C@@H]2CCN(c3cn[nH]c(=O)c3Cl)C2)nc(N)n1 [P-0089, (R)-5-(3-((2-amino-6-(1,3,5-trimethyl-1H-pyrazol-4-yl)pyrimidin-4-yl)oxy)pyrrolidin-1-yl)-4-chloropyridazin-3(2H)-one] |
| 0.001 to 10 µM | 0.001 to 10 µM | CC1CCCCN1c1ccnc(O[C@@H]2CCN(c3cn[nH]c(=O)c3Cl)C2)c1 (stereo partly drawn) [P-0094, 4-chloro-5-((3R)-3-((4-(2-methylpiperidin-1-yl)pyridin-2-yl)oxy)pyrrolidin-1-yl)pyridazin-3(2H)-one] |
| 0.001 to 10 µM | 0.001 to 10 µM | Cc1nn(CC2(C)COC2)c(C)c1-c1ccnc(O[C@@H]2CCN(c3cn[nH]c(=O)c3Cl)C2)c1 [P-0095, (R)-4-chloro-5-(3-((4-(3,5-dimethyl-1-((3-methyloxetan-3-yl)methyl)-1H-pyrazol-4-yl)pyridin-2-yl)oxy)pyrrolidin-1-yl)pyridazin-3(2H)-one] |
| 0.001 to 10 µM | 0.001 to 10 µM | N#CC1CC=C(c2ccnc(O[C@@H]3CCN(c4cn[nH]c(=O)c4Cl)C3)c2)CC1 (stereo partly drawn) [P-0100, 4-(2-(((R)-1-(5-chloro-6-oxo-1,6-dihydropyridazin-4-yl)pyrrolidin-3-yl)oxy)pyridin-4-yl)cyclohex-3-ene-1-carbonitrile] |
| 10 to 100 µM | 0.001 to 10 µM | CC(=O)N1CCN(c2ccnc(O[C@@H]3CCN(c4cn[nH]c(=O)c4Cl)C3)c2)[C@@H](C)C1 [P-0103, 5-((R)-3-((4-((S)-4-acetyl-2-methylpiperazin-1-yl)pyridin-2-yl)oxy)pyrrolidin-1-yl)-4-chloropyridazin-3(2H)-one] |
